In US4423029A, “(S)-3-Amino-4-[(S,S)-1-(1-hydroxyethyl)alkyl amino]-4-oxo-butyric acid compounds suitable as non-nutritive sweetners” (The Procter & Gamble Company, priority 1981, dated 1983):
In brackets after ≈: the same amount, converted by molar mass. Entries after “also recorded” stand apart in the source; their conditions may differ. Read-outs that look alike come from different tables or passages of the source. Each block holds one molecule with its values, some of them ahead of it. Residues, ends and D or L forms follow the SMILES beside them.

What was measured:
[1] = Hydrolytic stability in aqueous phosphate buffer; assay type: physicochemical; settings: for remaining at 360 h / half-life: 0.02 m phosphate buffer; for remaining at 360 h: read-out: % Remaining After 15 Days; for half-life: 0.02 M phosphate
Experimental: Stability tests were performed on the compound of formula (II) to determine the sweetener's resistance to hydrolysis under varying conditions.
The tests were performed using solutions of (II) in aqueous phosphate buffer, 0.02 M, at pH 3.5 and 6.9. The solutions were incubated at ~43° C. (110° F.), ~54° C. (130° F.), and ~66° C., (150° F.) for up to 32 days.
Samples from the test solutions were withdrawn at regular intervals and analyzed by reversed-phase high performance liquid chromatography for remaining intact (II), using the following conditions:
Column: 25 cm×0.4 cm I.D. stainless steel packed with Lichrosorb RP-18, 5μ particle size.
Mobile phase: Acetonitrile/0.01 M phosphate buffer (155/845 v/v), pH 6.
Detection: UV absorbance at 220 nm (~2200 Å). Results were quantified by comparison with standard solutions kept frozen during the tests. Peak heights were measured for replicate injections.
By use of the Arrhenius equation, [formula] where k is the specific reaction velocity, T is the absolute temperature (°K.), A is the activation energy constant, t is time, and R is the gas law constant, change in the rate of a first-order chemical reaction with temperature can be calculated. The half-life of (II) at ambient temperature and pH 6.9 is estimated to be 760 days (>2 yrs).

[2] = Amide bond cleavage by rat intestine homogenate; assay type: in vitro ADME; settings: pH 7.0, 37° C., up to two hours, standardized to Aspartame/rat = 100
From the text: (§1) This aspartic acid has the same caloric value as sugar, on a per-gram basis. These aspartic acid amide sweeteners are therefore not non-nutritive, but, rather, low calorie. In addition, the other molecular fragment released as a result of amide cleavage is frequently a non-physiological amine. It was therefore considered appropriate to gauge the rate of amide cleavage of compound (II) by digestive enzymes in evaluating both the calorigenic and the toxicologic potential of compounds of this invention.
(§2) Assays were performed in the following manner:
(§3) Aliquots of four mM solutions of test compounds in 100 mM potassium phosphate buffer solution at pH 7.0 were incubated at 37° C. (98.6° F.) for up to two hours with a standardized amount of animal intestine homogenate containing digestive enzymes. At the end of the incubation period, the enzymes were inactivated by boiling and the extent of amide bond hydrolysis was quantified by measurement of free L-aspartic acid in the solution. This was done by incubating a sample of the test solution with enzymes and substrates that convert L-aspartate to L-malate with concomitant oxidation of a pyridine nucleotide having a characteristic absorbance at 340 nanometers. The decrease in optical density at this wavelength is proportional to the amount of L-aspartate generated by amide bond hydrolysis.

[3] = Amide bond cleavage by monkey intestine homogenate; assay type: in vitro ADME; settings: pH 7.0, 37° C., up to two hours, standardized to Aspartame/rat = 100
From the text: as §1, §2, §3

[4] = cited from earlier work; for taste: in words; for sweetness intensity: L-aspartic acid alkyl amides, Mazur et al. 1970
[5] = in words; cited from earlier work
[6] = cited from earlier work; for half-life: pH 4
[7] = in words; cited from earlier work; remark: listed apart in the source
[8] = Aqueous solubility and calculated maximum effective sweetening power; assay type: physicochemical; settings: for solubility / Calculated Maximum Effective Sweetening Power: approximate (~)
Experimental: The solubility of compound (II) was determined in standard fashion. Water at pH 7 and 20° C. was used, except where indicated.
Because sweetness tends to plateau at higher concentrations of high intensity sweeteners, these calculations overestimate the actual sweetening power of the compounds of this invention.

[9] = Taste evaluation (human taste panel, comparison with sucrose standards); assay type: in vivo, Male subjects; settings: for taste / sweetness quality: in words
Experimental: The taste quality and sweetness intensity of the compounds of the present invention were determined by the following procedure.
Male subjects were selected at random from a group of about 20 persons who had previously been selected on the basis of proven tasting acuity, i.e., persons who could easily recognize the four basic tastes (sweet, sour, bitter and salty) and who were adept at quantifying their own physiological response numerically. The subjects were asked to taste and expectorate about 10 ml of a sample at about 22° C. containing dissolved test material. The subjects were then asked to compare the sweetness (and other taste qualities) of the test solution with four or five standard coded samples which contained increasing amounts of sucrose. Sweetness intensity of the unknown material was recorded by the subject making a mark on a coded closed linear scale at a point they considered equal in sweetness among the standards; interpolation between standards was encouraged. After completion of the panel, a four or five point (1-4 or 1-5, depending on the number of standards) numeric scale was superimposed on the coded linear scales to obtain numerical data; data were averaged and recorded to the nearest 0.25 unit. Equivalent sucrose sweetness was determined by referring to graphs of (w/v) sucrose concentration and standards versus a linear numeric scale.
Sweetness intensity was calculated by dividing the concentration (w/v) of perceived sweetness by the concentration (w/v) of test material required to produce that sweetness. Most taste comparisons were made in the range of 5-10% sucrose sweetness.
The five point scale with standards ranging from 1.37% (0.040 M) to 11.97% (0.35 M) sucrose usually sufficed to bracket the sweet intensity of a test sample. However, in the cases of beverage prototypes it was more meaningful to use prototype beverage solutions containing 2.5, 5.0, 10.0, 15.0 and 20.0% sucrose as standards. In all cases, evaluation of sweetness intensity in terms of sucrose equivalents was made with reference to graphs which related sucrose concentration and standard prototypes to the particular (arbitrary) scale units employed.
In tests in which taste quality was estimated, the subjects were asked to describe the initial taste and aftertaste in terms of percent sweet, sour, bitter, salty and "other", totalling 100%. In all tests, bottled spring water was used for rinsing between samples.

[10] = Resistance to hydrolysis by digestive enzymes (statement in words); assay type: in vitro ADME, animal
From the text: as §1, §2
as §3, with “hydrolysis. […]” for “hydrolysis.”

[11] = pH 3.5, .02M Phosphate Buffer at 54° C.
[12] = pH 7, .02M Phosphate Buffer at 54° C.

remaining at 360 h [1, 11]: 88%
remaining at 360 h [1, 12]: 72%
SMILES: CC(C)CCC(CO)NC(=O)[C@@H](N)CC(=O)O (some centres unmarked)

Relative rate of amide bond cleavage [2]: 19
SMILES: N[C@@H](CC(=O)O)C(=O)N[C@H](CO)Cc1ccccc1

Relative rate of amide bond cleavage [2]: 11
SMILES: CC(C)C[C@@H](CO)NC(=O)[C@@H](N)CC(=O)O

Relative rate of amide bond cleavage [3]: 103
Relative rate of amide bond cleavage [2]: 35
SMILES: CC(C)CC[C@@H](CO)NC(=O)[C@@H](N)CC(=O)O

Relative rate of amide bond cleavage [2]: 35
SMILES: CCCCCC(CO)NC(=O)[C@@H](N)CC(=O)O (some centres unmarked)

Relative rate of amide bond cleavage [3]: 68
Relative rate of amide bond cleavage [2]: 38
SMILES: CC(C)CCCC(C)NC(=O)[C@@H](N)CC(=O)O (some centres unmarked)

Relative rate of amide bond cleavage [2]: 4
SMILES: N[C@@H](CC(=O)O)C(=O)Nc1ccc2ccccc2c1

SMILES: CC(C)CC(C)NC(=O)[C@@H](N)CC(=O)O (some centres unmarked) [1,3-dimethylbutyl]
taste [4]: bitter

SMILES: CCC(C)CC(C)NC(=O)[C@@H](N)CC(=O)O (some centres unmarked) [1,3-dimethylpentyl]
sweetness intensity [4]: 1-2 X sucrose
taste [4]: sweet

SMILES: CC(C)CCC(C)NC(=O)[C@@H](N)CC(=O)O (some centres unmarked) [1,4-dimethylpentyl]
sweetness intensity [4]: 50-100 X sucrose
taste [4]: sweet

SMILES: CC(C)CCCC(C)N (centres unmarked) [1,5-dimethylhexylamine]
pharmacological activity [5]: vasopressor and myocardial stimulant activity

SMILES: CCCC(C)NC(=O)[C@@H](N)CC(=O)O (some centres unmarked) [1-methylbutyl]
taste [4]: tasteless

SMILES: CCCCCCC(C)NC(=O)[C@@H](N)CC(=O)O (some centres unmarked) [1-methylheptyl]
sweetness intensity [4]: 10 X sucrose
taste [4]: sweet

SMILES: CCCCCC(C)NC(=O)[C@@H](N)CC(=O)O (some centres unmarked) [1-methylhexyl]
sweetness intensity [4]: 20-50 X sucrose
taste [4]: sweet

SMILES: CCCCC(C)NC(=O)[C@@H](N)CC(=O)O (some centres unmarked) [1-methylpentyl]
sweetness intensity [4]: 30 X sucrose
taste [4]: sweet

SMILES: CC(C)CCCNC(=O)[C@@H](N)CC(=O)O [4-methylpentyl]
taste [4]: tasteless

Relative rate of amide bond cleavage [3]: 157
Relative rate of amide bond cleavage [2]: 100
SMILES: COC(=O)[C@H](Cc1ccccc1)NC(=O)[C@@H](N)CC(=O)O [Aspartame, L-aspartyl-L-phenylalanine methyl ester] (H-Asp-Phe-OMe)
half-life ([6]; 40° C.): 68 days
half-life ([6]; 55° C.): 16 days
stability in aqueous media ([6]; in words): hydrolyzes rapidly in aqueous media to non-sweet compounds
% Remaining After 15 Days ([6]; pH 3.5, 54° C., comparable data from literature): 50%
% Remaining ([6]; pH 7, 54° C., at 1 day, comparable data from literature): 0%
taste [4]: high quality sweetness; also recorded: free of unpleasant aftertaste
hydrolysis by gut enzymes [7]: readily converted to L-aspartic acids by enzymes in the gut

SMILES: CCCC(CC)NC(=O)[C@@H](N)CC(=O)O (some centres unmarked) [Compound 1-ethylbutyl]
taste [4]: bitter

solubility ([8]; Water, pH 7, 20° C.): 30 to 40 mg/mL (≈ 115 to 154 mM)
solubility in water ([8]; in words): surprisingly soluble in water
solubility ([8]; lemonade, ditto mark): 30 to 40 mg/mL (≈ 115 to 154 mM)
Relative rate of amide bond cleavage [3]: 0
Relative rate of amide bond cleavage [2]: 0
resistance to enzymatic hydrolysis [10]: resistant to enzymatic hydrolysis
half-life ([1]; pH 3.5, 54° C., pH start 3.5 (end 4.3)): 57 days
half-life ([1]; pH 3.5, 66° C., pH start 3.5 (end 4.8)): 17 days
half-life ([1]; pH 6.9, 43° C., pH start 6.9 (end 6.8)): 148 days
half-life ([1]; pH 6.9, 54° C., pH start 6.9 (end 6.09)): 64 days
half-life ([1]; pH 6.9, 66° C., pH start 6.9 (end 7.5)): 22 days
remaining at 360 h [1, 11]: 82%
remaining at 360 h [1, 12]: 86%
SMILES: CC(C)CC[C@H](NC(=O)[C@@H](N)CC(=O)O)[C@H](C)O [Compound II, (S)-3-amino-4-[(S,S)-1-(1-hydroxyethyl)-4-methyl-pentylamino]-4-oxo-butyric acid]
Calculated Maximum Effective Sweetening Power ([8]; Water): 180-240 g % sucrose equivalent
Calculated Maximum Effective Sweetening Power ([8]; lemonade): 255-340 g % sucrose equivalent
sweetness intensity ([9]; Lemonade): 85 × sucrose
sweetness intensity ([9]; Water): 60 × sucrose
sweetness relative to sucrose ([9]; at an 8% sucrose sweetness level): approximately 60 times
taste / sweetness quality [9]: sweetness quality comparable to sucrose; also recorded: sweet in both aqueous solution and granular form
taste / sweetness quality ([9]; listed as (S,S,S) compound): sweet
stability in aqueous media ([1]; in words): stable in moderately alkaline, neutral and moderately acidic aqueous media
reaction order of hydrolysis ([1]; log (% (II) intact) versus time): consistent with a reaction following first order kinetics

SMILES: COc1ccc(CCC(=O)c2c(O)cc(O[C@@H]3O[C@H](CO)[C@@H](O)[C@H](O)[C@H]3O[C@@H]3O[C@@H](C)[C@H](O)[C@@H](O)[C@H]3O)cc2O)cc1O [Neohesperidin dihydrochalcone]
taste [4]: the sweetness is slow to develop and it has a licorice-like aftertaste

SMILES: CCCCCCCNC(=O)[C@@H](N)CC(=O)O [heptyl]
sweetness intensity [4]: 1-2 X sucrose
taste [4]: sweet

SMILES: CCCCCCNC(=O)[C@@H](N)CC(=O)O [hexyl]
sweetness intensity [4]: 1-2 X sucrose
taste [4]: sweet

SMILES: O=C1NS(=O)(=O)c2ccccc21 [saccharin]
taste [4]: bitter aftertaste
